Literature values in patent publication US20020064788A1, “Systematic approach to mechanism-of-response analyses” (priority 2000, published 2002).
Read-outs that look alike come from different tables or passages of the source.

Legend:
[1] = tested on: intracellular Ca^2+ levels; c-fos, c-jun, AP-1; details: partial inhibition of Na+K+-ATPase
androgen-dependent cells = details: ouabain-induced decrease in Na+K+-ATPase activity
[2] = tested on: malignant and normal cells
[3] = tested on: Daudi (B-cell) cell lines; details: non-toxic doses
breast cancer = details: women on digitalis, five years after mastectomy
Glioblastoma cell lines = details: 30-60 nM, several Glioblastoma cell lines
[4] = tested on: Jurkat (T-cell) cell lines

For C[C@H]1O[C@@H](O[C@H]2[C@@H](O)C[C@H](O[C@H]3[C@@H](O)C[C@H](O[C@H]4CC[C@@]5(C)[C@H](CC[C@@H]6[C@@H]5CC[C@]5(C)[C@@H](C7=CC(=O)OC7)CC[C@]65O)C4)O[C@@H]3C)O[C@@H]2C)C[C@H](O)[C@@H]1O [Digitoxin], which “inhibition of Na+K+-ATPase” value (Na^+K^+-ATPase) is on record?
Its value is “specific inhibitors”.

Which “expression of c-fos, c-jun, and the transcription factor AP-1” value [1] does the source give for C[C@@H]1O[C@@H](O[C@H]2C[C@@H](O)[C@]3(CO)[C@H]4[C@H](O)C[C@]5(C)[C@@H](C6=CC(=O)OC6)CC[C@]5(O)[C@@H]4CC[C@]3(O)C2)[C@H](O)[C@H](O)[C@H]1O [ouabain] here?
Its value is “increases”.

What about the “intracellular Ca2+ levels” value [1] of the same molecule?
The value was “increases”.

What about the “sensitivity of cells to cisplatin” value (androgen-dependent cells) of the same molecule?
Its value is “reduces sensitivity”.

What about the sensitization to irradiation ([2]; malignant cells) of the same molecule?
Its sensitization to irradiation is “sensitizes”.

What about the sensitization to irradiation ([2]; normal cells) of the same molecule?
Its sensitization to irradiation is “not”.

What about the “inhibition of Na+K+-ATPase” value (Na^+K^+-ATPase) of the same molecule?
Its value is “specific inhibitors”.

For CC/C(=C(\c1ccccc1)c1ccc(OCCN(C)C)cc1)c1ccccc1 [tamoxifen], which “inhibition of Na+K+-ATPase” value (Na^+K^+-ATPase) is on record?
Its value is “appears to inhibit”.

With digitalis as the molecule, how does the apoptosis [3] read?
Its apoptosis is “induces apoptosis”.

What about the “reduction in recurrence of breast cancer” value (breast cancer) of the same molecule?
Its value is 9.6 fold.

What about the apoptosis (Glioblastoma cell lines) of the same molecule?
Its apoptosis is “induces apoptosis”.

What about the cell adherence (Glioblastoma cell lines) of the same molecule?
The cell adherence was “affects cell adherence”.

What about the apoptosis ([4]; non-toxic doses, Jurkat) of the same molecule?
The apoptosis was “induces apoptosis”.

B1: Fas ligand: protein which binds to Fas receptor and strongly induces apoptosis (protein, UniProt P48023 130-281, looked up)
Tumor necrosis factor ligand …: QIGHPSPPPEKKELRKVAHLTGKSNSRSMPLEWEDTYGIVLLSGVKYKKGGLVINETGLYFVYSKVYFRGQSCNNLPLSHKVYMRNSKYPQDLVMMEGKMMSYCTTGQMWARSSYLGAVFNLTSADHLYVNVSELSLVNFEESQTFFGLYKL
Which apoptosis ([4]; Jurkat cells, monitored by flow cytometry) does the source give for B1 here?
The apoptosis was “induces apoptosis”.
